Experimental data as given in US20190358181A1, “METHODS FOR AUTISM SPECTRUM DISORDER PHARMACOTHERAPY” (priority 2017, published 2019).

System: 610 metabolites from 63 biochemical pathways
Test: Targeted broad-spectrum plasma metabolomic analysis (LC-MS/MS), paired pre-infusion vs post-infusion (2-days and 6-weeks)
Assay type: in vivo, human
Conditions: for Linear Ratio / VIP Score / Z Abs / Z Score: plasma
Description: Targeted, broad-spectrum, plasma metabolomic analysis of 610 metabolites from 63 biochemical pathways was performed by high performance liquid chromatography and tandem mass spectrometry (LC-MS/MS) on the samples collected from patients in Example 1. Venous blood was collected between the hours of 8 am and 5 pm, at least 3 hours after the last meal, into lithium-heparin vacutainer tubes (BD #367884). Plasma was separated by centrifugation at 900 g×10 minutes at room temperature within one hour of collection. The resulting fresh lithium-heparin plasma was transferred to labeled 1.2 ml or 2.0 ml externally threaded cryotubes with a minimum headspace air gap for storage at −80° C. for analysis. Samples were analyzed on an AB SCIEX QTRAP 5500 triple quadrupole mass spectrometer equipped with a Turbo V electrospray ionization (ESI) source, Shimadzu LC-20A UHPLC system, and a PAL CTC autosampler. Typically, 90 μl of plasma was thawed on ice and transferred to a 1.7 ml Eppendorf tube. Five (5.0) μl of a cocktail containing 25-35 commercial stable isotope internal standards, and 5.0 μl of 57 stable isotope internal standards that were custom-synthesized in E. coli NCM3722, Caenorhabditis elegans N2, and Komagataella phaffii (ATCC 76273; formerly known as Pichia pastoris) by metabolic labeling with 13C-glucose and 13C-bicarbonate, were added, mixed, and incubated for 10 min at 20° C. to permit small molecules and vitamins in the internal standards to associate with plasma binding proteins. Macromolecules (protein, DNA, RNA, glycans, etc.) were precipitated by extraction with 4 volumes (400 μl) of cold (−20° C.), acetonitrile:methanol (50:50) (LCMS grade, Cat #LC015-2.5 and GC230-4, Burdick & Jackson, Honeywell), vortexed vigorously, and incubated on crushed ice for 10 min, then removed by centrifugation at 16,000 g×10 min at 4° C. The supernatants containing the extracted metabolites and internal standards in the resulting 40:40:20 solvent mix of acetonitrile:methanol:water were transferred to labeled cryotubes and stored at −80° C. for LCMS/MS analysis.
LC-MS/MS analysis was performed by scheduled multiple reaction monitoring (sMRM) under Analyst v1.6.2 software control in both negative and positive mode with rapid polarity switching (50 ms). Nitrogen was used for curtain gas (set to 30), collision gas (set to high), ion source gas 1 and 2 (set to 35). The source temperature was 500° C. Spray voltage was set to −4500 V in negative mode and 5500 V in positive mode. The values for Q1 and Q3 mass-to-charge ratios (m/z), declustering potential (DP), entrance potential (EP), collision energy (CE), and collision cell exit potential (CXP) were determined and optimized for each MRM for each metabolite. Ten microliters of extract was injected by PAL CTC autosampler via a 10 μl stainless steel loop into a 250 mm×2.0 mm, 4 μm polymer based NH2 HPLC column (Asahipak NH2P-40 2E, Showa Denko America, Inc., NY) held at 25° C. for chromatographic separation. The mobile phase was solvent A: 95% water with 20 mM (NH4)2CO3 (Sigma, Fluka Cat #74415-250G-F), 5% acetonitrile, and 38 mM NH4OH (Sigma, Fluka Cat #17837-100ML), final pH 9.75; solvent B: 100% acetonitrile. Separation was achieved using the following gradient: 0-3.5 min: 95% B, 3.6-8 min: 85% B, 8.1-13 min: 75% B, 13.5-35 min: 0% B, 36-46 min: 95% B, 46.1 min: end. The flow rate was 200 μl/min. Pump pressures ranged from 920-2600 psi over the course of the gradient. All the samples were kept at 4° C. during analysis. The chromatographic peaks were identified using MultiQuant (v3.0, Sciex), confirmed by manual inspection, and the peak areas integrated. […]

[1] = 1-Carbon, Folate, Formate, Glycine, Serine Metabolism, 6-weeks
[2] = 1-Pyrroline-5-carboxylic acid, 6-weeks
[3] = 2-Hydroxyisocaproic acid, 6-weeks
[4] = 2-Hydroxyisovaleric acid, 6-weeks
[5] = 3-Hydroxy-cis-5-tetradecenoylcarnitine, 6-weeks
[6] = 4-Hydroxyphenyllactic acid, 6-weeks
[7] = Amino Acid Metabolism (not otherwise covered), 6-weeks
[8] = Amino-Sugar, Galactose, & Non-Glucose Metabolism, 6-weeks
[9] = Amino-Sugar, Galactose, & Non-Glucose, 2-days
[10] = Bioamines and Neurotransmitter Metabolism, 2-days

For `Cc1ccc(C(=O)Nc2ccc(S(=O)(=O)O)c3cc(S(=O)(=O)O)cc(S(=O)(=O)O)c23)cc1NC(=O)c1cccc(NC(=O)Nc2cccc(C(=O)Nc3cc(C(=O)Nc4ccc(S(=O)(=O)O)c5cc(S(=O)(=O)O)cc(S(=O)(=O)O)c45)ccc3C)c2)c1` [Suramin, suramin], the Decreased [1] was 0, the “Fold Enrichment (Obs/Exp)” value [1] was 3.6 and the “Fraction of Impact (VIP Score) Explained (% of 94.6)” value (“Fraction of Impact … (% of 94.6)” for short) [1] was 4%. The “Impact (Sum VIP Score)” value [1] was 4.0, the Increased [1] was 2 and the “Observed Hits in the Top 48 Metabolites” value [1] was 2. The “Linear Ratio” value (1-Methyladenine, 6-weeks) was 2.287, the “VIP Score” value (1-Methyladenine, 6-weeks) was 2.459 and the “Z Abs” value (1-Methyladenine, 6-weeks) was 2.259. The “Z Score” value (1-Methyladenine, 6-weeks) was 2.259, the “Linear Ratio” value [2] was 1.299 and the “VIP Score” value [2] was 2.358. For the same compound, the “Z Abs” value [2] was 1.922, the “Z Score” value [2] was 1.922 and the “Linear Ratio” value [3] was 1.306. The “VIP Score” value [3] was 1.622, the “Z Abs” value [3] was 0.997 and the “Z Score” value [3] was 0.997. For the same compound, the “Linear Ratio” value [4] was 1.234, the “VIP Score” value [4] was 1.988 and the “Z Abs” value [4] was 1.146. The “Z Score” value [4] was 1.146, the “Linear Ratio” value (2-Keto-L-gluconate, 6-weeks) was 1.239 and the “VIP Score” value (2-Keto-L-gluconate, 6-weeks) was 2.686. The “Z Abs” value (2-Keto-L-gluconate, 6-weeks) was 2.365, the “Z Score” value (2-Keto-L-gluconate, 6-weeks) was 2.365 and the “biochemical pathways changed by suramin” value (2-days after the infusion) was 28. For the same compound, the “Linear Ratio” value [5] was 0.734, the “VIP Score” value [5] was 1.612 and the “Z Abs” value [5] was 1.056. The “Z Score” value [5] was −1.056, the “Linear Ratio” value [6] was 1.294 and the “VIP Score” value [6] was 1.945. The “Z Abs” value [6] was 1.172, the “Z Score” value [6] was 1.172 and the “pathways changed at 2-days that remained changed” value (6-week time point) was 79%. For the same compound, the “metabolites significantly changed by suramin (total)” value (6-weeks) was 48, the “Linear Ratio” value (Alanine, 6-weeks) was 1.322 and the “VIP Score” value (Alanine, 6-weeks) was 2.456. For the same compound, the “Z Abs” value (Alanine, 6-weeks) was 1.687, the “Z Score” value (Alanine, 6-weeks) was 1.687 and the “Linear Ratio” value (Allantoin, 6-weeks) was 1.798. The “VIP Score” value (Allantoin, 6-weeks) was 1.882, the “Z Abs” value (Allantoin, 6-weeks) was 1.068 and the “Z Score” value (Allantoin, 6-weeks) was 1.068. For the same compound, the Decreased [7] was 0, the “Fold Enrichment (Obs/Exp)” value [7] was 4.5 and the “Fraction of Impact … (% of 94.6)” value [7] was 5%. For the same compound, the “Impact (Sum VIP Score)” value [7] was 4.3, the Increased [7] was 2 and the “Observed Hits in the Top 48 Metabolites” value [7] was 2. The Decreased (Amino Acid Metabolism, 2-days) was 0, the “Fold Enrichment (Obs/Exp)” value (Amino Acid Metabolism, 2-days) was 1.8 and the “Fraction of Impact (VIP Score) Explained (% of 119.7)” value (“Fraction of Impact … (% of 119.7)” below) (Amino Acid Metabolism, 2-days) was 1%. The “Impact (Sum VIP Score)” value (Amino Acid Metabolism, 2-days) was 1.8, the Increased (Amino Acid Metabolism, 2-days) was 1 and the “Observed Hits in the Top 61 Metabolites” value (Amino Acid Metabolism, 2-days) was 1. For the same compound, the Decreased [8] was 0, the “Fold Enrichment (Obs/Exp)” value [8] was 1.8 and the “Fraction of Impact … (% of 94.6)” value [8] was 2%. For the same compound, the “Impact (Sum VIP Score)” value [8] was 1.9, the Increased [8] was 1 and the “Observed Hits in the Top 48 Metabolites” value [8] was 1. For the same compound, the Decreased [9] was 0, the “Fold Enrichment (Obs/Exp)” value [9] was 1.4 and the “Fraction of Impact … (% of 119.7)” value [9] was 1%. The “Impact (Sum VIP Score)” value [9] was 1.6, the Increased [9] was 1 and the “Observed Hits in the Top 61 Metabolites” value [9] was 1. The “Linear Ratio” value (Azelaic acid, 6-weeks) was 1.120, the “VIP Score” value (Azelaic acid, 6-weeks) was 2.151 and the “Z Abs” value (Azelaic acid, 6-weeks) was 2.558. The “Z Score” value (Azelaic acid, 6-weeks) was 2.558, the Decreased (Bile Acid Metabolism, 6-weeks) was 0 and the “Fold Enrichment (Obs/Exp)” value (Bile Acid Metabolism, 6-weeks) was 4.5. The “Fraction of Impact … (% of 94.6)” value (Bile Acid Metabolism, 6-weeks) was 6%, the “Impact (Sum VIP Score)” value (Bile Acid Metabolism, 6-weeks) was 5.7 and the Increased (Bile Acid Metabolism, 6-weeks) was 3. The “Observed Hits in the Top 48 Metabolites” value (Bile Acid Metabolism, 6-weeks) was 3, the Decreased (Bile Salt Metabolism, 2-days) was 0 and the “Fold Enrichment (Obs/Exp)” value (Bile Salt Metabolism, 2-days) was 4.7. For the same compound, the “Fraction of Impact … (% of 119.7)” value (Bile Salt Metabolism, 2-days) was 10%, the “Impact (Sum VIP Score)” value (Bile Salt Metabolism, 2-days) was 11.9 and the Increased (Bile Salt Metabolism, 2-days) was 4. For the same compound, the “Observed Hits in the Top 61 Metabolites” value (Bile Salt Metabolism, 2-days) was 4, the Decreased [10] was 2 and the “Fold Enrichment (Obs/Exp)” value [10] was 1.6. The “Fraction of Impact … (% of 119.7)” value [10] was 3%, the “Impact (Sum VIP Score)” value [10] was 3.3 and the Increased [10] was 0. The “Observed Hits in the Top 61 Metabolites” value [10] was 2 and the Decreased (Branch Chain Amino Acid Metabolism, 2-days) was 0.
